Measurements reported in article PMC3265452 (PLoS Neglected Tropical Diseases, 2012).
Where a name gives a salt, the structure may show the parent alone. Read-outs that look alike come from different tables or passages of the source.

Molecular target: AaDOP2 (Aedes aegypti, UniProt H6D5H2)
Assay: AaDOP2 antagonist screen of the LOPAC1280 library (HEK-CRELuc-Aadop2 cells, luminescence)
Format: cell-based
[1] = 10 µM compound, 300 nM dopamine, 2 hr, hit = compound effect <20

AaDOP2, sequence (H6D5H2 1-476): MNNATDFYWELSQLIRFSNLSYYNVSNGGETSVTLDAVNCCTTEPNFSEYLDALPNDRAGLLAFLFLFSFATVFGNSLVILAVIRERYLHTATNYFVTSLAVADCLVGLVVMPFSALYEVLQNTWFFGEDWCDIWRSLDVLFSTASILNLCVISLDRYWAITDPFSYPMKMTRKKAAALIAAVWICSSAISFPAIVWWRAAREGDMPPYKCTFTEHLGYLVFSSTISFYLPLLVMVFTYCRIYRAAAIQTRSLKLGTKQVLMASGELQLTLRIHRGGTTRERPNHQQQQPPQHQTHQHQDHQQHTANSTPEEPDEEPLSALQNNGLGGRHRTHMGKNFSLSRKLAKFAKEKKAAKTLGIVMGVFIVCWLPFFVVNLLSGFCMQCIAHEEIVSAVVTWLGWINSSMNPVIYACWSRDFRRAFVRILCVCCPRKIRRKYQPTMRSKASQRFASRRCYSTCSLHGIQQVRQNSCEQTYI

| Structure (SMILES) | Compound effect (percent receptor signaling in presence of test compound, relative lux units relative to the SCH23390 control) | also measured |
| --- | --- | --- |
| CCNC(=O)N1CCN(CCCC(c2ccc(F)cc2)c2ccc(F)cc2)CC1 [Compound 76, Amperozide hydrochloride] | 17 | inhibition at 10 µM (read-out: % of the SCH23390 effect (percent inhibition of receptor response relative to the SCH23390 control)): 83% |
| NN=C(N)N.NN=C(N)N.O=S(=O)(O)O [Compound 77, Aminoguanidine hemisulfate] |  | Compound effect (percent receptor signaling in presence of test compound, relative lux units relative to the SCH23390 control) [1]: 107% |
| NCCCCN=C(N)N [Compound 78, Agmatine sulfate] | 113 |  |
| Cl.Cl.N=C(N)c1ccc(N)cc1 [Compound 79, 4-Aminobenzamidine dihydrochloride] | 106 |  |
| NCCCP(=O)(O)O [Compound 80, 3-Aminopropylphosphonic acid] | 101 |  |
| CC(=O)N[C@@H](CS)C(=O)O [Compound 81, N-Acetyl-L-Cysteine] | 101 |  |
| N[C@@H](CCCC(=O)O)C(=O)O [Compound 82, L-2-aminoadipic acid] | 96 |  |
| CC(=O)NCCc1c[nH]c2ccccc12 [Compound 83, N-Acetyltryptamine] | 42 |  |
| N=C(N)NC(=O)c1nc(Cl)c(N)nc1N [Compound 84, Amiloride hydrochloride] | 110 |  |
| C[C@]12CC[C@@H](O)C[C@@H]1CC[C@@H]1[C@@H]2CC[C@]2(C)[C@@H](O)CC[C@@H]12 [Compound 86, 5alpha-Androstane-3alpha,17beta-diol] | 98 |  |
| C=CC[C@H](N)C(=O)O [Compound 87, L-allylglycine] | 107 |  |
| Cl.Cl.NCCNS(=O)(=O)c1cccc2cnccc12 [Compound 88, H-9 dihydrochloride] |  | Compound effect (percent receptor signaling in presence of test compound, relative lux units relative to the SCH23390 control) [1]: 64% |
| NCCCCCC(=O)O [Compound 89, 6-Aminohexanoic acid] | 120 |  |
| Oc1ncnc2[nH]ncc12 [Compound 91, Allopurinol] | 101 |  |
| CCCCc1oc2ccccc2c1C(=O)c1cc(I)c(OCCN(CC)CC)c(I)c1 [Compound 93, Amiodarone hydrochloride] | 104 |  |
| Cl.NCCc1ccc(S(=O)(=O)F)cc1 [Compound 94, 4-(2-Aminoethyl)benzenesulfonyl fluoride hydrochloride] | 105 |  |
| N=c1ccn2c(n1)O[C@H]1[C@H](O)[C@@H](CO)O[C@H]12 [Compound 95, Ancitabine hydrochloride] | 119 |  |
| C=CCc1ccccc1OCC(O)CNC(C)C (centres unmarked) [Compound 96, Alprenolol hydrochloride] | 104 |  |
| CN(C)c1nc(N(C)C)nc(N(C)C)n1 [Compound 97, Altretamine] | 105 |  |
| CC(=O)NCCc1ccc(O)c(O)c1.O [Compound 98, N-Acetyldopamine monohydrate] |  | Compound effect (percent receptor signaling in presence of test compound, relative lux units relative to the SCH23390 control) [1]: 95% |
| Cl.N=C(N)NN [Compound 99, Aminoguanidine hydrochloride] |  | Compound effect (percent receptor signaling in presence of test compound, relative lux units relative to the SCH23390 control) [1]: 107% |
| C=CC[N+](C)(C)c1ccc(CCC(=O)CCc2ccc([N+](C)(C)CC=C)cc2)cc1.[Br-].[Br-] [Compound 100, BW 284c51] | 93 |  |
